Experimental data as given in US20120258170A1, “PHARMACEUTICAL CO-CRYSTALS OF QUERCETIN” (Nutracryst Therapeutics Private Limited, priority 2009, published 2012).
Entries after “also recorded” stand apart in the source; their conditions may differ. Counter-ions that a name gives are not always drawn. Like-named read-outs stand apart in the source and are kept apart here.

Tests used:
[1] = target: angiotensin-converting enzyme (Homo sapiens, UniProt P12821); details: cited from earlier work
[2] = test system: HeLa cells; details: Quercetin pretreatment; cited from earlier work
[3] = test system: AMP-activated protein kinase (AMPK); details: HepG2 cells; cited from earlier work
[4] = P<0.05; cited from earlier work
[5] = target: human lens aldose reductase (Homo sapiens, UniProt P15121); details: cited from earlier work
[6] = test system: db/db mice; assay: Acute effect of test compounds on plasma glucose levels in db/db mice; type: in vivo; details: for % Reduction in plasma glucose (acute): 0 hr vs 3 hr post single dose 300 mg/kg per oral; for % Reduction in plasma glucose (acute) / 3 Hr plasma glucose / 0 Hr plasma glucose: Mean ± SEM; for 3 Hr plasma glucose: 3 hrs post single dose 300 mg/kg per oral; for 0 Hr plasma glucose: 4 hrs fasted, before dosing, 300 mg/kg per oral group; for plasma glucose levels 3 hrs post dosing with single dose (in words): acute administration, 300 mg/kg, vs control group
Experimental: (§1) Db/db mice were acclimatized to dosing and exposed to tail cut and r.o.p bleeding. Animals were grouped based on plasma glucose, triglyceride and cholesterol values. Acute effect of test compound on plasma glucose levels determined 3 hrs post dosing followed by administration of test compound for 21 days. After 14 days treatment, 4 hrs fasting plasma glucose levels were measured. After 21 days treatment, 4 hrs fasting plasma glucose levels were measured followed by test compound administration and measurement of plasma glucose levels 3 hrs post dosing.
(§2) Kits: Plasma glucose, cholesterol and triglyceride were measured using Dade Behring auto analyzer. Plasma insulin values measured using Rat/mouse insulin ELISA kit (Millipore, lot no 16006280). Tail cut method plasma glucose values measured using Contour TS glucometer strips (Lot WK8MD3E32A).
(§3) Compounds and Vehicle: All test-compounds were formulated in tween CMC (10% of 2.5% tween 80+90% of 0.25% CMC) and prepared daily about 1 hr before administration. Animals were dosed for 21 days through oral gavage at dose volume of 10 ml/kg body weight.
On the day of initiating study animals were fasted for 4 hrs and plasma glucose was measured with Glucometer by tail cut method. Animals were dosed with test compound/vehicle according to their body weight and 3 hrs post dosing plasma glucose levels were measured with Glucometer Immediately animals were provided with measured amount of feed.
Acute effect percent reduction in PG was calculated for each animal using the formula
{(0 hr PG−test hr PG)/0 hr PG}×100
(§4) Statistics were applied using One-Way ANOVA followed by Dunnett's test using sigma stat software.

[7] = test system: db/db mice; assay: Chronic effect on plasma profile (PG, TC, TG), 4 hrs fasted, before dosing, in db/db mice; type: in vivo; details: for 14th day PG / 14th day TC / 14th day TG: 14 days 300 mg/kg once daily per oral, pre dosing; for 14th day PG / 14th day TC / 14th day TG / 21st day PG / 21st day TC / 21st day TG: 4 hr fasting; for % Red PG, 14th day / % Red TC, 14th day / % Red TG, 14th day: 14 days 300 mg/kg once daily; for % Red PG, 14th day / % Red TC, 14th day / % Red TG, 14th day / % Red PG, 21st day: adjusted for control and basal; for 21st day PG / 21st day TC / 21st day TG: 21 days 300 mg/kg once daily per oral, predosing; for % Red PG, 21st day / % Red TC (plasma cholesterol), 21st day / % Red TG (plasma triglyceride), 21st day: 21 days 300 mg/kg once daily; for % Red TC (plasma cholesterol), 21st day / % Red TG (plasma triglyceride), 21st day: post 4 hrs fasting, without dosing on the day; for Basal PG / Basal TC / Basal TG: 4 hrs fasted, before treatment, Mean ± SEM; for 4 hrs fasting plasma glucose levels after 21 days treatment (in words): chronic treatment 21 days
Experimental: as §1, §2, §3
(§5) Animals were dosed daily at around 10 AM to 11 AM with corresponding test compounds/vehicle at a volume of 10 ml/kg of body weight. Body weight, water intake and food intake was measured daily. After 14 days treatment plasma profile (PG, TG & TC) was measured in 4 hrs fasted animals. On that day animals were dosed post bleeding after keeping feed at 4 PM. After 21 days treatment plasma profile (PG, TG & TC) was measured in 4 hrs fasted animals. After bleeding, animals were administered with test compounds/vehicle and plasma glucose was measured 3 hrs post dosing with Glucometer. Immediately animals were provided with feed.
(§6) Blood samples from r.o.p bleeding were collected in micro centrifuge tubes containing 5 ul of EDTA Na ([…]). Plasma separated by centrifuging blood samples at 6000 rpm at 40 C for 5 minutes. Plasma glucose, total cholesterol and triglyceride were measured using Dade Bhering auto analyser. Plasma insulin was measured (in duplicate samples), using Millipore mouse/rat insulin ELISA kit.
(§7) The percent reduction in plasma profile parameters were calculated using the formula 1−(tt/tc)/bt/bc)×100; where tt: test day treated group mean value of the parameter; tc: test day control group mean value of the parameter; bc: Basal Control group mean value; bt: Basal treated group mean value.
as §4

[8] = test system: db/db mice; assay: Chronic effect (21 days) on plasma glucose 3 hrs post dosing in db/db mice; type: in vivo; details: for plasma glucose levels 3 hrs post dosing after 21 days treatment followed by administration on day 21 (in words): 300 mg/kg; for % Red PG, 21th day 3 hr post dosing / 21th day 3 hr post dosing PG: 21 days 300 mg/kg once daily, then dose; for 21th day 3 hr post dosing PG: Mean ± SEM
Experimental: as §1, §2, §3, §5, §7, §4

[9] = test system: db/db mice; assay: Chronic effect on plasma insulin levels in db/db mice; type: in vivo; parameters: % Reduction in plasma insulin / % Reduction@ in plasma insulin: concentration or dose not given beside the values; details: for % Reduction@ in plasma insulin: 21th day, calculated after adjusting for control group change; for 21th day insulin: 21 days 300 mg/kg once daily, 4 hr fasting, predosing; for % Reduction in plasma insulin: basal vs 21th day; for % Reduction in plasma insulin / Basal insulin: Mean ± SEM; for Basal insulin: before treatment
Experimental: as §2, §3, §5, §6, §7, §4

[10] = Chronic effect on body weight in db/db mice; type: in vivo; details: Mean ± SEM; for Final day Body weight: after 21 days 300 mg/kg once daily; for % Increase in body weight: basal to final day
Experimental: as §3, §5, §4

[11] = water
Experimental: The compounds disclosed herein are finely ground and passed through standard mesh filter and particles with 75-180 micron, and are tested for their solubility and dissolution profile.
The solubility studies for co-crystals and salts were performed according to Higuchi and Connor's method with some variations. Excess amounts (100 mg) of the samples were suspended in 10 mL of water in round bottom flask. Solutions were stirred at 300 rpm using a magnetic stirrer. After 72 h, the suspensions were filtered through a paper filter (Whatman 40)) and filtered aliquots were sufficiently diluted, the absorbance of the samples were measured at 232 nm and the values were normalized for API. […] A standard graph was made by measuring the absorbance of varied concentrations of API in water using a UV spectrophotometer (Nanodrop UV/vis spectrometer) at λmax 232 nm.

[12] = Stability of the co-crystal
[13] = cited from earlier work

Sequence of angiotensin-converting enzyme (P12821 30-1306, species assumed): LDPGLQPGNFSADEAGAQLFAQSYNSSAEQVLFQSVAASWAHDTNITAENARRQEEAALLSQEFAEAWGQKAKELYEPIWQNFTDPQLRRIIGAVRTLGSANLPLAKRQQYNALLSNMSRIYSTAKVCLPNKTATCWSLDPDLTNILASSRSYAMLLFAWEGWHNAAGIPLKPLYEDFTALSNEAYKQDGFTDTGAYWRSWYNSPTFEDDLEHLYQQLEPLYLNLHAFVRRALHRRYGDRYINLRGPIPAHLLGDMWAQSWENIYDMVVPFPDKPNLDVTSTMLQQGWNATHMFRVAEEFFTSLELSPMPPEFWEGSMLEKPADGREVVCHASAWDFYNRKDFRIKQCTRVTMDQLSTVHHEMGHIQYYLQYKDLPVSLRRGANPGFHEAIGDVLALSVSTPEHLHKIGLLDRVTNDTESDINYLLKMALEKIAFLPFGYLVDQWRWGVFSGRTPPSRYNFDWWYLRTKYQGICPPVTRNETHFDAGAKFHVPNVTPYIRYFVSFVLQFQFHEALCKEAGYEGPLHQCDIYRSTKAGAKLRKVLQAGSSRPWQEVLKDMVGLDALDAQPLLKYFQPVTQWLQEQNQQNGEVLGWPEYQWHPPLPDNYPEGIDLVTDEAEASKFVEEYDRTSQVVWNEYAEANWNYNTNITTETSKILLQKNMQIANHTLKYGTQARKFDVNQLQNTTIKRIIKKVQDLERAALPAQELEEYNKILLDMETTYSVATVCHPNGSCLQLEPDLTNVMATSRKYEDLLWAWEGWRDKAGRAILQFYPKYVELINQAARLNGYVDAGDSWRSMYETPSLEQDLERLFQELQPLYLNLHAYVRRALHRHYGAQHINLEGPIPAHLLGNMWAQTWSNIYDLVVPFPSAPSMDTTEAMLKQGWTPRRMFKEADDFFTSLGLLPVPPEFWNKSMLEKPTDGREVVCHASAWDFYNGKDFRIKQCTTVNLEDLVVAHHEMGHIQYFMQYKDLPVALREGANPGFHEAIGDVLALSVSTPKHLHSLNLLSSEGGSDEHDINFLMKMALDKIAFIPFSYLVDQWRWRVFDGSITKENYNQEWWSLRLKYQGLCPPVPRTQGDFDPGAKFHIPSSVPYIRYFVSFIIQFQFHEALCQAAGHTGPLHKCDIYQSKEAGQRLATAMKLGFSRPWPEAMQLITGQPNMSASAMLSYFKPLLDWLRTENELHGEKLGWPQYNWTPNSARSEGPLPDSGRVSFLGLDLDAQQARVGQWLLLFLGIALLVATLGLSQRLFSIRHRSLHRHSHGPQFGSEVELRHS

| Structure (SMILES) | % Reduction in plasma glucose (acute) [6] [%] | 3 Hr plasma glucose [6] [mg/dL] | 0 Hr plasma glucose [6] [mg/dL] | 14th day PG [7] [mg/dL] | 14th day TC [7] [mg/dL] | 14th day TG [7] [mg/dL] | % Red PG, 14th day [7] [%] | % Red TC, 14th day [7] [%] | % Red TG, 14th day [7] [%] | 21st day PG [7] [mg/dL] | 21st day TC [7] [mg/dL] | 21st day TG [7] [mg/dL] | % Red PG, 21st day [7] [%] | % Red TC (plasma cholesterol), 21st day [7] [%] | % Red TG (plasma triglyceride), 21st day [7] [%] | Basal PG [7] [mg/dL] | Basal TC [7] [mg/dL] | Basal TG [7] [mg/dL] | % Red PG, 21th day 3 hr post dosing [8] [%] | 21th day 3 hr post dosing PG [8] [mg/dL] | further results |
| --- | --- | --- | --- | --- | --- | --- | --- | --- | --- | --- | --- | --- | --- | --- | --- | --- | --- | --- | --- | --- | --- |
| O=c1c(O)c(-c2ccc(O)c(O)c2)oc2cc(O)cc(O)c12 [Quercetin] | – | – | – | – | – | – | – | – | – | – | – | – | – | – | – | – | – | – | – | – | hypotensive effect of bradykinin ([1]; pretreatment 88.7 μmol/kg p.o., 45 min, 14.7 μmol/kg i.v., 5 min, bradykinin 10 nmol/kg i.v.): significantly potentiated; hypertensive response to angiotensin I ([1]; same pretreatment, angiotensin I 0.1 nmol/kg iv): significantly reduced; cisplatin-induced apoptosis in HeLa cells [2]: sensitizes; AMPK phosphorylation [3]: increased; mRNA expression of PGC-1alpha and SIRT1, mtDNA and cytochrome C concentration [4]: increased; maximal endurance capacity and voluntary wheel running activity [4]: increase; inhibition of human lens aldose reductase [5]: strong inhibitor |
| CN(C)C(=N)NC(=N)N.CN(C)C(=N)NC(=N)N.O.O.O=c1c(O)c(-c2ccc(O)c(O)c2)oc2cc(O)cc(O)c12 [ILB-MCO-0905Q, Quercetin dihydrate+Metformin free base co-crystal (1:2)] | 48 ± 4 | 186 ± 21 | 358 ± 34 | 417.71 ± 37.85 | 153.68 ± 3.49 | 126.70 ± 6.25 | 8 | 2 | 8 | 368.96 ± 32.95 | 160.25 ± 4.29 | 129.66 ± 5.38 | 14 | 13 | 27 | 399.40 ± 26.54 | 160.42 ± 3.77 | 135.94 ± 6.92 | 38 | 225 ± 33 | plasma glucose levels 3 hrs post dosing with single dose (in words) [6]: Significant lowering; also recorded: significant reduction; 4 hrs fasting plasma glucose levels after 21 days treatment (in words) ([7]; 300 mg/kg): did not show significant reduction; plasma glucose levels 3 hrs post dosing after 21 days treatment followed by administration on day 21 (in words) [8]: significant lowering; also recorded: significant reduction; % Reduction@ in plasma insulin [9]: 45%; 21th day insulin [9]: 3.03 ± 0.42 ng/mL; plasma insulin levels after 21 days treatment (in words) ([9]; 21 days, 300 mg/kg, compared to control group): significant reduction; % Reduction in plasma insulin [9]: 30.56 ± 8.10 %; Basal insulin [9]: 4.55 ± 0.50 ng/mL; Final day Body weight [10]: 43.7 ± 1 g; % Increase in body weight [10]: 10.1 ± 2.5%; Basal Body weight [10]: 39.2 ± 0.8 g; solubility compared with the parent molecule Quercetin ([11]; listed as Quercetin dihydrate-Metformin co-crystal): substantially improved; solubility compared with the parent molecule Quercetin ([11]; listed as Quercetin dihydrate-Metformin co-crystals): greater than the parent molecule; stability under accelerated conditions ([12]; accelerated conditions): stable; stability monitored once in seven days for 3 months ([12]; desiccated conditions): stable; hygroscopicity ([12]; normal conditions): hygroscopic |
| N[C@@H](CC(=O)N1CCn2c(nnc2C(F)(F)F)C1)Cc1cc(F)c(F)cc1F [Sitagliptin] | – | – | – | – | – | – | – | – | – | – | – | – | – | – | – | – | – | – | – | – | Bioavailability [13]: 87%; Half Life [13]: 8 to 14 h |
| CN(C)C(=N)N=C(N)N [ILB-MCO-0906Q, Metformin hydrochloride] | 52 ± 4 | 181 ± 25 | 373 ± 43 | 443.33 ± 40.27 | 144.51 ± 4.61 | 114.11 ± 4.76 | 3 | 6 | 17 | 400.80 ± 42.77 | 157.86 ± 8.76 | 127.00 ± 5.65 | 7 | 11 | 28 | 402.43 ± 26.13 | 155.90 ± 5.08 | 136.10 ± 5.39 | 44 | 200 ± 31 | plasma glucose levels 3 hrs post dosing with single dose (in words) ([6]; hydrochloride): Significant lowering; also recorded: significant reduction; 4 hrs fasting plasma glucose levels after 21 days treatment (in words) ([7]; 300 mg/kg): did not show significant reduction; plasma glucose levels 3 hrs post dosing after 21 days treatment followed by administration on day 21 (in words) ([8]; hydrochloride): significant lowering; also recorded: significant reduction; % Reduction@ in plasma insulin [9]: 28%; 21th day insulin [9]: 3.82 ± 0.72 ng/mL; % Reduction in plasma insulin [9]: 15.32 ± 7.16%; Basal insulin [9]: 4.42 ± 0.63 ng/mL; Final day Body weight [10]: 45.1 ± 0.6 g; % Increase in body weight [10]: 14.5 ± 0.9%; Basal Body weight [10]: 38.5 ± 0.5 g |
| Oc1ccc(C=Cc2cc(O)cc(O)c2)cc1 [resveratrol] | – | – | – | – | – | – | – | – | – | – | – | – | – | – | – | – | – | – | – | – | AMPK phosphorylation [3]: increased |
| O.O.O=c1c(O)c(-c2ccc(O)c(O)c2)oc2cc(O)cc(O)c12 [ILB-MCO-0904Q, Quercetin dihydrate] | 31 ± 4 | 293 ± 65 | 398 ± 67 | 476.41 ± 45.57 | 154.43 ± 6.50 | 129.08 ± 5.61 | −4 | −1 | 8 | 432.69 ± 42.38 | 151.25 ± 4.93 | 141.99 ± 8.25 | 0 | 15 | 21 | 402.50 ± 26.82 | 156.25 ± 4.53 | 138.00 ± 8.04 | 4 | 345 ± 41 | effect on plasma glucose levels with acute or chronic administration (in words) ([7]; 300 mg/kg): Did not show significant effect; % Reduction@ in plasma insulin [9]: 18%; 21th day insulin [9]: 2.90 ± 0.33 ng/mL; % Reduction in plasma insulin [9]: 0.29 ± 9.87%; Basal insulin [9]: 2.94 ± 0.20 ng/mL; Final day Body weight [10]: 44.6 ± 1.3 g; % Increase in body weight [10]: 12.2 ± 2.3%; Basal Body weight [10]: 39.1 ± 1.2 g |
